Assay results from ChEMBL document CHEMBL3045552, “In vivo screening of diarylimidazoles as anticonvulsant agents” (Med Chem Res, 2012).
Active and inactive are the calls of the source. The rule behind the calls is not given here.

Tests used:
Mus musculus [1] = experiment: Anticonvulsant activity in Mus musculus CF1 albino (mouse) assessed as protection against subcutaneous metrazol-induced seizures at 300 mg/kg, ip measured at 4 hr; type: functional, organism-based; set-up: dose 300 mg/kg
Mus musculus [2] = experiment: Anticonvulsant activity in Mus musculus CF1 albino (mouse) assessed as protection against subcutaneous metrazol-induced seizures at 100 mg/kg, ip measured at 4 hr; type: functional, organism-based; set-up: dose 100 mg/kg
Mus musculus [3] = experiment: Anticonvulsant activity in Mus musculus CF1 albino (mouse) assessed as protection against maximal electroshock-induced seizures at 100 mg/kg, ip measured at 4 hr; type: functional, organism-based; set-up: dose 100 mg/kg
Mus musculus [4] = experiment: Anticonvulsant activity in Mus musculus CF1 albino (mouse) assessed as protection against subcutaneous metrazol-induced seizures at 300 mg/kg, ip measured at 0.5 hr; type: functional, organism-based; set-up: dose 300 mg/kg
Mus musculus [5] = experiment: Neurotoxicity in Mus musculus CF1 albino (mouse) assessed as minimal motor impairment at 30 mg/kg, ip measured at 0.5 hr by rotorod test; type: toxicity, organism-based; set-up: dose 30 mg/kg, route intraperitoneal; settings: in vivo
Mus musculus [6] = experiment: Anticonvulsant activity in Mus musculus CF1 albino (mouse) assessed as protection against maximal electroshock-induced seizures at 30 mg/kg, ip measured at 4 hr; type: functional, organism-based; set-up: dose 30 mg/kg
Mus musculus [7] = experiment: Anticonvulsant activity in Mus musculus CF1 albino (mouse) assessed as protection against subcutaneous metrazol-induced seizures at 30 mg/kg, ip measured at 4 hr; type: functional, organism-based; set-up: dose 30 mg/kg
Mus musculus [8] = experiment: Anticonvulsant activity in Mus musculus CF1 albino (mouse) assessed as protection against subcutaneous metrazol-induced seizures at 30 mg/kg, ip measured at 0.5 hr; type: functional, organism-based; set-up: dose 30 mg/kg
Mus musculus [9] = experiment: Anticonvulsant activity in Mus musculus CF1 albino (mouse) assessed as protection against subcutaneous metrazol-induced seizures at 100 mg/kg, ip measured at 0.5 hr; type: functional, organism-based; set-up: dose 100 mg/kg
Mus musculus [10] = experiment: Neurotoxicity in Mus musculus CF1 albino (mouse) assessed as minimal motor impairment at 30 mg/kg, ip measured at 4 hr by rotorod test; type: toxicity, organism-based; set-up: dose 30 mg/kg, route intraperitoneal; settings: in vivo
Mus musculus [11] = experiment: Anticonvulsant activity in Mus musculus CF1 albino (mouse) assessed as protection against maximal electroshock-induced seizures at 300 mg/kg, ip measured at 0.5 hr; type: functional, organism-based; set-up: dose 300 mg/kg
Mus musculus [12] = experiment: Anticonvulsant activity in Mus musculus CF1 albino (mouse) assessed as protection against maximal electroshock-induced seizures at 100 mg/kg, ip measured at 0.5 hr; type: functional, organism-based; set-up: dose 100 mg/kg
Mus musculus [13] = experiment: Neurotoxicity in Mus musculus CF1 albino (mouse) assessed as minimal motor impairment at 300 mg/kg, ip measured at 0.5 hr by rotorod test; type: toxicity, organism-based; set-up: dose 300 mg/kg, route intraperitoneal; settings: in vivo
Mus musculus [14] = experiment: Anticonvulsant activity in Mus musculus CF1 albino (mouse) assessed as protection against maximal electroshock-induced seizures at 30 mg/kg, ip measured at 0.5 hr; type: functional, organism-based; set-up: dose 30 mg/kg
Mus musculus [15] = experiment: Neurotoxicity in Mus musculus CF1 albino (mouse) assessed as minimal motor impairment at 100 mg/kg, ip measured at 4 hr by rotorod test; type: toxicity, organism-based; set-up: dose 100 mg/kg, route intraperitoneal; settings: in vivo
Mus musculus [16] = experiment: Anticonvulsant activity in Mus musculus CF1 albino (mouse) assessed as protection against maximal electroshock-induced seizures at 300 mg/kg, ip measured at 4 hr; type: functional, organism-based; set-up: dose 300 mg/kg
Mus musculus [17] = experiment: Neurotoxicity in Mus musculus CF1 albino (mouse) assessed as minimal motor impairment at 100 mg/kg, ip measured at 0.5 hr by rotorod test; type: toxicity, organism-based; set-up: dose 100 mg/kg, route intraperitoneal; settings: in vivo
Mus musculus [18] = experiment: Anticonvulsant activity in Mus musculus CF1 albino (mouse) assessed as protection against electrically-induced seizure at 100 mg/kg, ip measured at 2 hr by 6Hz psychomotor seizure test; type: functional, organism-based; set-up: dose 100 mg/kg
Mus musculus [19] = experiment: Anticonvulsant activity in Mus musculus CF1 albino (mouse) assessed as protection against electrically-induced seizure at 100 mg/kg, ip measured at 4 hr by 6Hz psychomotor seizure test; type: functional, organism-based; set-up: dose 100 mg/kg
[20] = Neurotoxicity in ip dosed Mus musculus CF1 albino (mouse) assessed as minimal motor impairment measured at 0.25 hr by rotorod test; type: toxicity, organism-based; settings: in vivo
Mus musculus [21] = experiment: Anticonvulsant activity in ip dosed Mus musculus CF1 albino (mouse) assessed as protection against maximal electroshock-induced seizures measured at 0.25 hr; type: functional
Mus musculus [22] = experiment: Anticonvulsant activity in ip dosed Mus musculus CF1 albino (mouse) assessed as protection against subcutaneous metrazol-induced seizures measured at 0.25 hr; type: functional
Mus musculus [23] = experiment: Neurotoxicity in Mus musculus CF1 albino (mouse) assessed as minimal motor impairment at 300 mg/kg, ip measured at 4 hr by rotorod test; type: toxicity, organism-based; set-up: dose 300 mg/kg, route intraperitoneal; settings: in vivo
[24] = Protective index, ratio of TD50 for neurotoxicity in ip dosed Mus musculus CF1 albino (mouse) to ED50 for protection against maximal electroshock-induced seizures in ip dosed Mus musculus CF1 albino (mouse); type: toxicity, organism-based; settings: in vivo, read-out: Ratio TD50/ED50
[25] = Protective index, ratio of TD50 for neurotoxicity in ip dosed Mus musculus CF1 albino (mouse) to ED50 for protection against subcutaneous metrazol-induced seizures in ip dosed Mus musculus CF1 albino (mouse); type: toxicity, organism-based; settings: in vivo, read-out: Ratio TD50/ED50
Mus musculus [26] = experiment: Anticonvulsant activity in Mus musculus CF1 albino (mouse) assessed as protection against electrically-induced seizure at 100 mg/kg, ip measured at 1 hr by 6Hz psychomotor seizure test; type: functional, organism-based; set-up: dose 100 mg/kg
Mus musculus [27] = experiment: Anticonvulsant activity in ip dosed Mus musculus CF1 albino (mouse) assessed as protection against electrically-induced seizure measured at 0.25 hr by 6Hz psychomotor seizure test; type: functional
[28] = Protective index, ratio of TD50 for neurotoxicity in ip dosed Mus musculus CF1 albino (mouse) to ED50 for protection against electrically-induced seizure by 6Hz psychomotor seizure test in ip dosed Mus musculus CF1 albino (mouse); type: toxicity, organism-based; settings: in vivo, read-out: Ratio TD50/ED50
Mus musculus [29] = experiment: Anticonvulsant activity in Mus musculus CF1 albino (mouse) assessed as protection against electrically-induced seizure at 100 mg/kg, ip measured at 0.25 hr by 6Hz psychomotor seizure test; type: functional, organism-based; set-up: dose 100 mg/kg
Mus musculus [30] = experiment: Anticonvulsant activity in Mus musculus CF1 albino (mouse) assessed as protection against electrically-induced seizure at 100 mg/kg, ip measured at 0.5 hr by 6Hz psychomotor seizure test; type: functional, organism-based; set-up: dose 100 mg/kg

Row | Structure (SMILES) | Activity (Mus musculus [1]) | Activity (Mus musculus [2]) | Activity (Mus musculus [3]) | Activity (Mus musculus [4]) | Activity (Mus musculus [5]) | Activity (Mus musculus [6]) | Activity (Mus musculus [7]) | Activity (Mus musculus [8]) | Activity (Mus musculus [9]) | Activity (Mus musculus [10]) | Activity (Mus musculus [11]) | Activity (Mus musculus [12]) | Activity (Mus musculus [13]) | Activity (Mus musculus [14]) | Activity (Mus musculus [15]) | Activity (Mus musculus [16]) | Activity (Mus musculus [17]) | Activity (Mus musculus [18]) | Activity (Mus musculus [19]) | Activity (Mus musculus [23]) | also measured
1 | CC(C)Oc1ccc(-c2nc(-c3ccccc3)c[nH]2)cc1 | inactive | inactive | inactive | inactive | Non-toxic | inactive | inactive | inactive | inactive | Non-toxic | Active | Active | Toxic | Active | Non-toxic | Active | Non-toxic | inactive | inactive | – | –
2 | COc1ccc(-c2nc(-c3ccc(Cl)cc3)c[nH]2)cc1 | inactive | inactive | Active | inactive | Non-toxic | inactive | inactive | inactive | inactive | Non-toxic | Active | – | Non-toxic | inactive | Non-toxic | Active | Non-toxic | inactive | inactive | Non-toxic | TD50 at 0.25 h [20]: 238 mg/kg; ED50 (Mus musculus [21]): 68.8 mg/kg; ED50 (Mus musculus [22]): 158 mg/kg; selectivity ratio [24]: 3.5; selectivity ratio [25]: 1.5
3 | CCOc1ccc(-c2nc(-c3ccccc3)c[nH]2)cc1 | – | inactive | inactive | inactive | Non-toxic | inactive | inactive | inactive | inactive | Non-toxic | Active | – | Non-toxic | inactive | Non-toxic | inactive | Non-toxic | inactive | inactive | Non-toxic | Activity (Mus musculus [26]): inactive
4 | COc1ccc(-c2nc(-c3ccccc3)c[nH]2)cc1 | inactive | inactive | – | Active | Non-toxic | inactive | inactive | inactive | inactive | Non-toxic | Active | Active | Toxic | inactive | Non-toxic | Active | Non-toxic | inactive | inactive | Toxic | ED50 (Mus musculus [21]): 46.8 mg/kg; ED50 (Mus musculus [22]): 142 mg/kg; selectivity ratio [24]: 4.3; selectivity ratio [25]: 1.4
5 | FC(F)(F)Oc1ccc(-c2nc(-c3ccccc3)c[nH]2)cc1 | inactive | inactive | – | Active | Non-toxic | inactive | inactive | inactive | inactive | Non-toxic | Active | inactive | Toxic | inactive | Non-toxic | Active | Non-toxic | – | – | Non-toxic | TD50 at 0.25 h [20]: 136 mg/kg; ED50 (Mus musculus [27]): 28.2 mg/kg; selectivity ratio [28]: 4.8; Activity (Mus musculus [26]): Active; Activity (Mus musculus [29]): Active; Activity (Mus musculus [30]): Active
6 | CC(C)c1ccc(-c2nc(-c3ccccc3)c[nH]2)cc1 | inactive | inactive | inactive | inactive | Non-toxic | inactive | inactive | inactive | inactive | Non-toxic | Active | inactive | Non-toxic | inactive | Non-toxic | Active | Non-toxic | – | – | Non-toxic | Activity (Mus musculus [26]): inactive
7 | COc1ccc(-c2nc(-c3cccc(Cl)c3)c[nH]2)cc1 | inactive | inactive | – | inactive | Non-toxic | inactive | inactive | inactive | inactive | Non-toxic | Active | inactive | Non-toxic | inactive | Non-toxic | Active | Non-toxic | – | inactive | Non-toxic | TD50 at 0.25 h [20]: 390 mg/kg; ED50 (Mus musculus [21]): 82.1 mg/kg; ED50 (Mus musculus [22]): 103 mg/kg; Activity (Mus musculus [26]): inactive; selectivity ratio [24]: 4.7; selectivity ratio [25]: 3.8
8 | Cc1ccc(-c2nc(-c3ccccc3)c[nH]2)cc1 | inactive | inactive | inactive | inactive | Non-toxic | inactive | inactive | inactive | inactive | Non-toxic | Active | – | Non-toxic | inactive | Non-toxic | Active | Non-toxic | – | inactive | Non-toxic | TD50 at 0.25 h [20]: 188 mg/kg; ED50 (Mus musculus [27]): 62.4 mg/kg; selectivity ratio [28]: 3
9 | O=C1NC(=O)C(c2ccccc2)(c2ccccc2)N1 [PHENYTOIN] | – | – | – | – | – | – | – | – | – | – | – | – | – | – | – | – | – | – | – | – | TD50 at 0.25 h [20]: 35.6 mg/kg; ED50 (Mus musculus [27]): 27.5 mg/kg
10 | c1ccc(-c2c[nH]c(-c3ccccc3)n2)cc1 | inactive | inactive | inactive | inactive | Non-toxic | inactive | inactive | inactive | inactive | Non-toxic | Active | Active | Toxic | Active | Non-toxic | Active | – | inactive | inactive | – | ED50 (Mus musculus [21]): 61.7 mg/kg; ED50 (Mus musculus [27]): 47.2 mg/kg; ED50 (Mus musculus [22]): 161 mg/kg; Activity (Mus musculus [26]): Active; Activity (Mus musculus [29]): Active; Activity (Mus musculus [30]): Active
